Where two headings read alike, the source gives them in different places.
What was measured:
K-562 = test: NCI one-dose SRB anti-proliferative screen; type: cell-based, human; details: Homo sapiens, K562, read-out: Cell growth inhibition %
Experimental: (§1) The twenty-four synthesized compounds were submitted to the National Cancer Institute (NCI), USA. Eighteen hybrids 7a-h, 7k-r, 7u, and 7v were selected by NCI for one-dose assessment of their anti-proliferative activities at 10 µM dose by Sulforhodamine B colorimetric assay. The assessment was performed in 60 cell lines derived from nine tumor subpanels, comprising lung, leukemia, melanoma, colon, renal, CNS, prostate, breast, and ovarian cancer cell lines.
(§2) The methodology of the NCI anti-proliferative screening has been described in details elsewhere (http://www.dtp.nci.nih.gov).

RXF 393 = test: NCI one-dose SRB anti-proliferative screen; type: cell-based, human; details: Homo sapiens, read-out: Cell growth inhibition %
Experimental: as §1, §2

T-47D = test: NCI one-dose SRB anti-proliferative screen; type: cell-based, human; details: for inhibition at 10 µM: Homo sapiens, T47D, read-out: Cell growth inhibition %
Experimental: as §1, §2

MOLT-4 = test: NCI one-dose SRB anti-proliferative screen; type: cell-based, human; details: Homo sapiens, read-out: Cell growth inhibition %
Experimental: as §1, §2

HCT-116 = test: NCI one-dose SRB anti-proliferative screen; type: cell-based, human; details: Homo sapiens, read-out: Cell growth inhibition %
Experimental: as §1, §2

A-549 = test: Propidium iodide anti-proliferative assay; type: cell-based; details: Homo sapiens, A549; 48 h incubation; read-out: IC50 ± SEM A-549
Experimental: (§3) The propidium iodide (PI) tests^31, 32 were further used for assessment of the IC50 of all synthesized compounds and compared to Doxorubicin as a positive control against four cancer cell lines; pancreatic cancer cell line (Panc-1), epithelial line cancer cell (A-549), breast cancer cell line (MCF-7), and colon cancer cell line (HT-29).
(§4) Using the propidium iodide fluorescence assay with doxorubicin as the reference drug, IC50 of the 24 compounds 7a-x, was carried out according to a previously reported procedure^31, 32 against a panel of four human cancer cell lines; epithelial cancer cell line (A-549), breast cancer cell line (MCF-7), colon cancer cell line (HT-29) and pancreas cancer cell line (Panc-1). Compounds 7a-x were incubated with cancer cells for 2 days at different concentrations. See Appendix A.
(§5) To explore the antiproliferative potential of compounds propidium iodide fluorescence assay was performed using different cell lines (melanoma cancer cell line LOX-IMVI, pancreatic cancer cell line (Panc-1), epithelial line cancer cell (A-549), breast cancer cell line (MCF-7), and colon cancer cell line (HT-29). To calculate the total nuclear DNA, a fluorescent dye (propidium iodide, PI) is used which can attach to the DNA,^9,^10 thus offering a quick and precise technique. PI cannot pass through the cell membrane and its signal intensity can be considered as directly proportional to the quantity of cellular DNA. Cells whose cell membranes are damaged or have changed permeability are counted as dead ones. The assay was performed by seeding the cells of different cancer cell lines at a density of 3000-7500 cells/well (in 200µl medium) in culture plates followed by incubation for 24h at 37 °C in humidified 5% CO2/95% air atmospheric conditions. The medium was removed; the compounds were added to the plates at 10 µM concentrations (in 0.1% DMSO) in triplicates, followed by incubation for 48 h. DMSO (0.1%) was used as control. After incubation, medium was removed followed by the addition of PI (25 µl, 50µg/mL in water/medium) to each well of the plates. At -80 °C, the plates were allowed to freeze for 24 h, followed by thawing at 25 °C. A fluorometer (Polar-Star BMG Tech) was used to record the readings at excitation and emission wavelengths of 530 and 620 nm for each well. The percentage cytotoxicity of compounds was calculated using the following formula:
(§6) Where ATC= Absorbance of treated cells and AC= Absorbance of control. […]

HT-29 = test: Propidium iodide anti-proliferative assay; type: cell-based; details: Homo sapiens, 48 h incubation, read-out: IC50 ± SEM HT-29
Experimental: as §3, §4, §5, §6

Panc-1 = test: Propidium iodide anti-proliferative assay; type: cell-based; details: Homo sapiens, 48 h incubation, read-out: IC50 ± SEM Panc-1
Experimental: as §3, §4, §5, §6

MCF-7 = test: Propidium iodide anti-proliferative assay; type: cell-based; details: Homo sapiens, MCF7; 48 h incubation; read-out: IC50 ± SEM MCF-7
Experimental: as §3, §4, §5, §6

NCI-H460 = test: NCI one-dose SRB anti-proliferative screen; type: cell-based; details: Homo sapiens, read-out: Cell growth inhibition %
Experimental: as §1, §2

SNB-19 = test: NCI one-dose SRB anti-proliferative screen; type: cell-based; details: Homo sapiens, read-out: Cell growth inhibition %
Experimental: as §1, §2

MDA-MB-468 = test: NCI one-dose SRB anti-proliferative screen; type: cell-based; details: Homo sapiens, read-out: Cell growth inhibition %
Experimental: as §1, §2

RPMI-8226 = test: NCI one-dose SRB anti-proliferative screen; type: cell-based; details: Homo sapiens, read-out: Cell growth inhibition %
Experimental: as §1, §2

HOP-92 = test: NCI one-dose SRB anti-proliferative screen; type: cell-based; details: Homo sapiens, read-out: Cell growth inhibition %
Experimental: as §1, §2

SNB-75 = test: NCI one-dose SRB anti-proliferative screen; type: cell-based; details: Homo sapiens, read-out: Cell growth inhibition %
Experimental: as §1, §2

CAKI-1 = test: NCI one-dose SRB anti-proliferative screen; type: cell-based; details: Homo sapiens, read-out: Cell growth inhibition %
Experimental: as §1, §2

HT29 = test: NCI one-dose SRB anti-proliferative screen; type: cell-based; details: Homo sapiens, HT-29, read-out: Cell growth inhibition %
Experimental: as §1, §2

SF-295 = test: NCI one-dose SRB anti-proliferative screen; type: cell-based; details: Homo sapiens, read-out: Cell growth inhibition %
Experimental: as §1, §2

IGROV1 = test: NCI one-dose SRB anti-proliferative screen; type: cell-based; details: Homo sapiens, IGROV-1, read-out: Cell growth inhibition %
Experimental: as §1, §2

HS 578T = test: NCI one-dose SRB anti-proliferative screen; type: cell-based; details: Homo sapiens, read-out: Cell growth inhibition %
Experimental: as §1, §2

SF-268 = test: NCI one-dose SRB anti-proliferative screen; type: cell-based; details: Homo sapiens, read-out: Cell growth inhibition %
Experimental: as §1, §2

[1] = RXF 393, Renal cancer, NCI one dose
[2] = T-47D, Breast cancer, NCI one dose
[3] = HCT-116, Colon cancer, NCI one dose
[4] = NCI-H460, Non-Small Cell Lung Cancer, NCI one dose
[5] = SNB-19, CNS Cancer, NCI one dose
[6] = MDA-MB-468, Breast cancer, NCI one dose
[7] = RPMI-8226, Leukemia, NCI one dose
[8] = HOP-92, Non-Small Cell Lung Cancer, NCI one dose
[9] = SNB-75, CNS Cancer, NCI one dose
[10] = CAKI-1, Renal cancer, NCI one dose
[11] = HT29, Colon cancer, NCI one dose
[12] = SF-295, CNS Cancer, NCI one dose
[13] = IGROV1, Ovarian Cancer, NCI one dose
[14] = HS 578T, Breast cancer, NCI one dose
[15] = SF-268, CNS Cancer, NCI one dose

Structure (SMILES) | inhibition at 10 µM (K-562; K-562, Leukemia, NCI one dose) [%] | inhibition at 10 µM (RXF 393; [1]) [%] | inhibition at 10 µM (T-47D; [2]) [%] | inhibition at 10 µM (MOLT-4; MOLT-4, Leukemia, NCI one dose) [%] | inhibition at 10 µM (HCT-116; [3]) [%] | IC50 (A-549) [nM] | IC50 (HT-29) [nM] | IC50 (Panc-1) [nM] | IC50 (MCF-7) [nM] | inhibition at 10 µM (NCI-H460; [4]) [%] | inhibition at 10 µM (SNB-19; [5]) [%] | inhibition at 10 µM (MDA-MB-468; [6]) [%] | inhibition at 10 µM (RPMI-8226; [7]) [%] | inhibition at 10 µM (HOP-92; [8]) [%] | inhibition at 10 µM (SNB-75; [9]) [%] | inhibition at 10 µM (CAKI-1; [10]) [%] | inhibition at 10 µM (HT29; [11]) [%] | inhibition at 10 µM (SF-295; [12]) [%] | inhibition at 10 µM (IGROV1; [13]) [%] | inhibition at 10 µM (HS 578T; [14]) [%] | further results
COc1ccc(/C=C/C(=O)c2ccc(NC(=O)CSc3nnc(-c4ccc5[nH]c(-c6ccc(OC)cc6)nc5c4)o3)cc2)cc1 [Compound 7m, 2-{5-[2-(4-Methoxyphenyl)-1 H-benzo[d]imidazol-5-yl]-1,3,4-oxadiazol-2-ylthio}-N-{4-[(E)-3-(4-methoxyphenyl)acryloyl]phenyl}acetamide] | 28.7 | 0 | 31.1 | 36.9 | 0 | 1400 ± 500 | 1850 ± 400 | 1500 ± 200 | 1200 ± 80 | 1.44 | 3.7 | 0 | 44.1 | 18.9 | 0 | 6.15 | 0 | 2.1 | 3.99 | 21.1 | inhibition at 10 µM (SF-268; [15]): 5.02%
COc1ccc(/C=C/C(=O)c2ccc(NC(=O)CSc3nnc(-c4ccc5[nH]c(-c6ccccc6)nc5c4)o3)cc2)cc1 [Compound 7c, 2-{5-[2-Phenyl-1 H-benzo[d]imidazol-5-yl]-1,3,4-oxadiazol-2-ylthio}-N-{4-[(E)-3-(4-methoxyphenyl)acryloyl]phenyl}acetamide] | 3.83 | 8.38 | 47.6 | 23.9 | 15.1 | 4700 ± 500 | 5500 ± 500 | 5200 ± 400 | 4150 ± 500 | 0 | 7.28 | 0 | 50.9 | 0 | 0 | 0 | 1.01 | 1.65 | 0 | 0 | Growth Percent (T-47D; T-47D (Breast Cancer), 10 µM one dose): 52.35%; inhibition at 10 µM (SF-268; [15]): 0%
COc1cc(-c2nc3cc(-c4nnc(SCC(=O)Nc5ccc(C(=O)/C=C/c6ccc(Cl)cc6)cc5)o4)ccc3[nH]2)cc(OC)c1OC [Compound 7v, 2-{5-[2-(3,4,5-Trimethoxyphenyl)-1 H-benzo[d]imidazol-5-yl]-1,3,4-oxadiazol-2-ylthio}-N-{4-[(E)-3-(4-chlorophenyl)acryloyl]phenyl}acetamide] | – | – | – | – | – | 2450 ± 500 | 2900 ± 500 | 2600 ± 200 | 2200 ± 80 | – | – | – | – | – | – | – | – | – | – | – | inhibition at 10 µM (K-562; K-562 (Leukemia), NCI one dose 10 µM): 16.2%; inhibition at 10 µM (RXF 393; RXF 393 (Renal Cancer), NCI one dose 10 µM): 0%; inhibition at 10 µM (T-47D; T-47D (Breast Cancer), NCI one dose 10 µM): 19.6%; inhibition at 10 µM (MOLT-4; MOLT-4 (Leukemia), NCI one dose 10 µM): 20.6%; inhibition at 10 µM (HCT-116; HCT-116 (Colon Cancer), NCI one dose 10 µM): 18.5%; inhibition at 10 µM (NCI-H460; NCI-H460 (Non-Small Cell Lung Cancer), NCI one dose 10 µM): 0%; inhibition at 10 µM (SNB-19; SNB-19 (CNS Cancer), NCI one dose 10 µM): 6.59%; inhibition at 10 µM (MDA-MB-468; MDA-MB-468 (Breast Cancer), NCI one dose 10 µM): 6.96%; inhibition at 10 µM (RPMI-8226; RPMI-8226 (Leukemia), NCI one dose 10 µM): 42.8%; inhibition at 10 µM (HOP-92; HOP-92 (Non-Small Cell Lung Cancer), NCI one dose 10 µM): 17.8%; inhibition at 10 µM (SNB-75; SNB-75 (CNS Cancer), NCI one dose 10 µM): 14.7%; inhibition at 10 µM (CAKI-1; CAKI-1 (Renal Cancer), NCI one dose 10 µM): 2.81%; inhibition at 10 µM (HT29; HT29 (Colon Cancer), NCI one dose 10 µM): 0%; inhibition at 10 µM (SF-295; SF-295 (CNS Cancer), NCI one dose 10 µM): 2.25%; inhibition at 10 µM (IGROV1; IGROV1 (Ovarian Cancer), NCI one dose 10 µM): 18.4%; inhibition at 10 µM (HS 578T; HS 578T (Breast Cancer), NCI one dose 10 µM): 12.1%; inhibition at 10 µM (SF-268; SF-268 (CNS Cancer), NCI one dose 10 µM): 0.81%

From publication PMC10504751, “Chalcone/1,3,4-Oxadiazole/Benzimidazole hybrids as novel anti-proliferative agents inducing apoptosis and inhibiting EGFR & BRAFV^600E” (BMC Chemistry, 2023)
